The values that follow come from US7645903B2, “Use of urea variants as affinity ligands” (GE Healthcare Bio-Sciences AB, priority 2002, dated 2010).

Each structure is given as a SMILES string. Where a name gives a salt, the structure may show the parent alone.

The assay concerns human Fab of κ-type. In words: STD-NMR binding test (saturation transfer difference NMR screening). Details: key to NMR signal, conc 1 / NMR signal, conc 2 / NMR signal, conc 3 / NMR signal, Conc 1 (directed library) / NMR signal, Conc 2 (directed library): 0 no; 1 weak; 2 strong signal. Particulars: for NMR signal, conc 2: 100 nM protein; for NMR signal, conc 2 / NMR signal, conc 1: 0.5 mM ligand; for NMR signal, conc 1: 500 nM protein; for NMR signal, Conc 2 (directed library): 100 nM antibody; for NMR signal, Conc 1 (directed library): 500 nM antibody; for interaction with the antibody in NMR screening of directed library: two higher antibody concentrations. The method, then: All NMR experiments were performed at 298 K on a Bruker Avance 500 MHz spectrometer. The 1D saturation transfer difference method (STD-NMR) was used as screening assay (Mayer M. and Meyer B. 1999. Characterisation of Ligand Binding by Saturation Transfer Difference NMR Spectroscopy. Angew. Chem., Int. Ed. 38: 1784-1788). […] The two spectra are recorded in the same experiment in an interleaved fashion. […] It has been shown that the method is capable of detecting ligands with dissociation constants between 10^−3 and 10^−8 M (Mayer M. and Meyer B. 1999. Characterisation of Ligand Binding by Saturation Transfer Difference NMR Spectroscopy. Angew. Chem, Int. Ed. 38: 1784-1788). The strength of the STD-NMR signal depends upon several factors including protein size, offset and duration of the on-resonance irradiation, the dissociation rate constant and the excess of ligand. The STD-NMR method is advantageous in that the detection limits can be tuned for binding by varying the protein concentration while keeping the ligand concentration constant. Under such conditions, at higher protein concentrations the weak to medium binders are detected, whereas at lower protein concentrations only medium binders are detected. For instance, it has been shown before for another enzyme system that both μM and mM binders were detected at a protein concentration of 35 μM whereas only μM binders were detected at protein concentrations of 1 μM and 100 nM (Peng J. W., Lepre C. A., Fejzo J., Abdul-Manan N. and Moore J. M. 2001, Nuclear Magnetic Resonance-Based Approaches for Lead Generation in Drug Discovery, Methods in Enzymology. 338: 202-230). It should be noted that the signal intensity at one specific protein concentration should not be taken as a direct measure of the binding strength. […] On the other hand the signal of the μM binder became even stronger than before (Peng J. W., Lepre C. A., Fejzo J., Abdul-Manan N. and Moore J. M. 2001, Nuclear Magnetic Resonance-Based Approaches for Lead Generation in Drug Discovery, Methods in Enzymology. 338: 202-230).
Here, three different antibody concentrations were used, namely, 0.5 μM, 100 nM and 20 nM. The antibody used was a human Fab of κ-type. In all cases ligands were tested one-by-one. On-resonance irradiation was set at 0 ppm and off-resonance irradiation was set at 40 ppm. Irradiation time in each scan was 2 s and 16K data points were collected with 1024 scans in total. Compounds for testing were dissolved in DMSOd6 to a concentration of 50 mM and 5 μL of the concentrated ligand solution was added to 495 μL buffer solution. The samples thus consisted of 0.5 mM ligand, 20 mM phosphate buffer, 100 mM NaCl and […] in D2O at pD 7.5, uncorrected reading on pH-meter. Compounds were initially tested for binding with 0.5 μM antibody. Interesting ligands were further tested with protein concentrations of 100 or 20 nM. A one-dimensional ^1H-spectrum was acquired first as reference spectrum and subsequently a saturation transfer difference (STD) spectrum was acquired. Each analysis took 60 minutes on the spectrometer.

As to `Clc1ccc(COn2ccnc2)cc1Cl` [AB_0001150, 1-[(3,4-dichlorobenzyl)oxy]-1h-imidazole], the “NMR signal, conc 2” value was 0 and the “NMR signal, conc 1” value is on record as 2.

`S=C(Oc1ccccn1)c1csc(C2COc3ccccc3O2)n1` (stereo not shown) [AB_0001260, 2-pyridyl 2-(2,3-dihydro-1,4-benzodioxin-2-yl)-1,3-thiazole-4-carbothioate]: the “NMR signal, conc 1” value is 0. Take `CC1CN=C(SCc2ccccc2)N1.Cl` (stereo not shown) [AB_0001080, 2-(benzylthio)-5-methyl-4,5-dihydro-1h-imidazol-3-ium chloride]: the “NMR signal, conc 1” value is 0. On to `Sc1nnc(-c2csc(-c3ccccc3)n2)o1` [AB_0000760, 5-(2-phenyl-1,3-thiazol-4-yl)-1,3,4-oxadiazol-2-ylhydrosulfide], for which the “NMR signal, conc 2” value was 0 and the “NMR signal, conc 1” value is reported as 1. Take `COC(=O)CCCNC(=O)N(C)c1ccc(Cl)c(Cl)c1` [AB_0001257, 4-[3-(3,4-Dichloro-phenyl)-3-methyl-ureido]-butyric acid methyl ester]: the “NMR signal, Conc 2 (directed library)” value is listed as 0 and the “NMR signal, Conc 1 (directed library)” value is 2. On to `O=C(c1ccccn1)C(O)c1ccccn1` (stereo not drawn) [AB_0000510, alpha-pyridoin], for which the “NMR signal, conc 1” value was determined as 0. For `COC(=O)[C@H]1CCCN1C(=O)N(C)c1ccc(Cl)c(Cl)c1` (single isomer, unassigned) [AB_0003290, 1-[(3,4-Dichloro-phenyl)-methyl-carbamoyl]-pyrrolidine-2-carboxylic acid methyl ester (R-isomer)], the “NMR signal, Conc 2 (directed library)” value is recorded as 2 and the “NMR signal, Conc 1 (directed library)” value is listed as 2. As for `COC(=O)CCCN(C)C(=O)N(C)c1ccc(Cl)c(Cl)c1` [AB_0001255, 4-[3-(3,4-Dichloro-phenyl)-1,3-dimethyl-ureido]-butyric acid methyl ester], the “NMR signal, Conc 2 (directed library)” value is listed as 2; the “NMR signal, Conc 1 (directed library)” value came out at 2; the “interaction with the antibody in NMR screening of directed library” value was “strongest binding”. In the case of `OC(CNCc1ccccc1)C(F)(F)F` (stereo not shown) [AB_0001000, 3-(benzylamino)-1,1,1-trifluoro-2-propanol], the “NMR signal, conc 2” value is 0 and the “NMR signal, conc 1” value is listed as 1. `CCCCc1c(O)nc2ccccn2c1=O` [AB_0000990, 3-butyl-2-hydroxy-4h-pyrido[1,2-a]pyrimidin-4-one]: the “NMR signal, conc 1” value amounted to 0. In the case of `O=C1C(=O)N(c2ccccc2)C(=O)N1c1ccccc1` [AB_0000540, 1,3-diphenylparabanic acid], the “NMR signal, conc 1” value was 0.

As for `CCn1ccnc1CC1COc2ccccc2O1` (stereo not shown) [AB_0001070, imiloxan hydrochloride], the “NMR signal, conc 2” value was 1 and the “NMR signal, conc 1” value stood at 1.

For `O=C(c1ccc2ccccc2c1)n1ccnc1` [AB_0000900, 1-(2-naphthoyl)imidazole], the “NMR signal, conc 1” value was 0. Same read-out and setting: under `O=C(O)c1ccnn(-c2ccccc2)c1=O` [AB_0001180, 3-oxo-2-phenyl-2,3-dihydro-4-pyridazinecarboxylic acid] stands 0. Same read-out and setting: under `CC1=NN(c2cccc(Cl)c2)C(=O)C1` [AB_0000530, 1-(3-chlorophenyl)-3-methyl-2-pyrazolin-5-one] stands 0; under `CSCCNC(=O)c1nc2ccccc2c(=O)n1N` [AB_0001130, 3-amino-n-[2-(methylthio)ethyl]-4-oxo-3,4-dihydroquinazoline-2-carboxamide], 0. With `O=C1C=CC(=O)N1c1cccc(Cl)c1` [AB_0001090, n-(3-chlorophenyl)-maleimide], the “NMR signal, conc 2” value is reported as 0 and the “NMR signal, conc 1” value was 1. Take `COC(=O)CCCN(C)C(=O)N(C)c1ccc(F)c(F)c1` [AB_0001258, 4-[3-(3,4-Difluoro-phenyl)-1,3-dimethyl-ureido]-butyric acid methyl ester]: the “NMR signal, Conc 2 (directed library)” value was 1 and the “NMR signal, Conc 1 (directed library)” value is 1.

`CC1(C)CC(=O)c2sc(NC(=O)c3cccnc3)nc2C1` [AB_0000750, n-(5,5-dimethyl-7-oxo-4,5,6,7-tetrahydro-benzothiazol-2-yl)-nicotinamide]: the “NMR signal, conc 1” value worked out at 0. Regarding `OC(CNCc1ccc(Cl)cc1)CSc1ccccc1` (stereo not shown) [AB_0001270, 1-[(4-chlorobenzyl)amino]-3-(phenylthio)propan-2-ol], the “NMR signal, conc 2” value came to 0 and the “NMR signal, conc 1” value worked out at 1.

For the compound `O=C1SC(Br)C(=O)N1c1ccccc1` (stereo not shown) [AB_0000880, 5-bromo-3-phenyl-thiazolidine-2,4-dione], the “NMR signal, conc 1” value was 0. Consider `N=c1sccn1CC(=O)c1ccc2ccccc2c1` [AB_0001060, 2-(2-imino-thiazol-3-yl)-1-naphthalen-2-yl-ethanone], for which the “NMR signal, conc 2” value is listed as 0 and the “NMR signal, conc 1” value came out at 2. Regarding `O=C(COc1ccc2ccccc2c1)ON1C(=O)CCC1=O` [AB_0001230, (2-naphthoxy)acetic acid, n-hydroxysuccinimide ester], the “NMR signal, conc 1” value was 0. For the compound `CCOC(=O)c1c[nH]c2ccccc2c1=O` [AB_0001100, ethyl 4-oxo-1,4-dihydroquinoline-3-carboxylate], the “NMR signal, conc 1” value turned out to be 0. On to `O=C1C(=Cc2ccccc2)C(=O)c2ccccc21` [AB_0000730, 2-benzylidene-1,3-indandione], for which the “NMR signal, conc 1” value worked out at 0. With `COC(=O)CCCN(C)C(=O)N(C)c1ccc(OC)c(Cl)c1` [AB_0001253, 4-[3-(3-Chloro-4-methoxy-phenyl)-1,3-dimethyl-ureido]-butyric acid methyl ester], the “NMR signal, Conc 2 (directed library)” value is recorded as 1 and the “NMR signal, Conc 1 (directed library)” value is 2. `c1ccc(CCn2cc(-c3ccncc3)cn2)cc1` [AB_0001190, 4-[1-(2-phenylethyl)-(1h)-pyrazol-4-yl]pyridine]: the “NMR signal, conc 2” value is 0 and the “NMR signal, conc 1” value turned out to be 2. As for `c1ccc(-c2nnc(-c3ccccn3)nn2)nc1` [AB_0000700, 3,6-di-2-pyridyl-1,2,4,5-tetrazine], the “NMR signal, conc 1” value came out at 0. For `COC(=O)c1ccc2ccccc2c1O` [AB_0001200, methyl 1-hydroxy-2-naphthoate], the “NMR signal, conc 2” value turned out to be 0 and the “NMR signal, conc 1” value was determined as 1. Consider `O=C(c1cccs1)c1cnc2ccccn2c1=O` [AB_0001300, 3-(2-thienylcarbonyl)-4h-pyrido[1,2-a]pyrimidin-4-one], for which the “NMR signal, conc 2” value came to 0 and the “NMR signal, conc 1” value is listed as 1.

As to `COC(=O)NC(=O)c1nc(-c2ccccc2)c(C)o1` [AB_0000670, methyl n-[(5-methyl-4-phenyl-1,3-oxazol-2-yl)carbonyl]carbamate], the “NMR signal, conc 2” value was found to be 0 and the “NMR signal, conc 1” value worked out at 2. As for `COC(=O)CCCN(C)C(=O)N(C)c1ccccc1` [AB_0001251, 4-(1,3-Dimethyl-3-phenyl-ureido)-butyric acid methyl ester], the “NMR signal, Conc 2 (directed library)” value was determined as 0; the “NMR signal, Conc 1 (directed library)” value worked out at 0; the “interaction with the antibody in NMR screening of directed library” value is given as “negative result”. With `OC(CNCc1ccc(Cl)cc1Cl)C(F)(F)F` (stereo not shown) [AB_0001170, 3-[(2,4-dichlorobenzyl)amino]-1,1,1-trifluoro-2-propanol], the “NMR signal, conc 1” value is reported as 0.
